Holding throughout (format): biochemical
The target in assay [1] is T1, PIP4K2B (Homo sapiens, UniProt P78356).
T1 construct: made in house; host or cells: E. coli
T1 sequence (P78356 1-416): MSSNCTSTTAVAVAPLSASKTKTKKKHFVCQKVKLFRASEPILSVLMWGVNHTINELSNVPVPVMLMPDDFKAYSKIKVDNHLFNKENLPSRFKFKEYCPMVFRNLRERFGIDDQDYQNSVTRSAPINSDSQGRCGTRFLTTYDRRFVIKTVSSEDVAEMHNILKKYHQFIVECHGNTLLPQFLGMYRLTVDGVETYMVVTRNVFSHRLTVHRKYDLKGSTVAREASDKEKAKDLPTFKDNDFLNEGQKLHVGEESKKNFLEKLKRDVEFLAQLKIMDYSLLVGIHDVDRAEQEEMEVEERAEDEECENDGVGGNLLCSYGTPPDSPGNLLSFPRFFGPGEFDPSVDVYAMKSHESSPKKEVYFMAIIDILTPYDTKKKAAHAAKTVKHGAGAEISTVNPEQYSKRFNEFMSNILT
The assay can be described thus: Trans-FI P kinase assay PIP4K2B (Table 4). The settings on record: compounds listed under IC50 bins; read-out: Trans-FI P kinase assays: PIP4K2B IC50. The method in brief: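 Transcreener FI detection (Ex 584/Em 623) of GDP, converted via calibration curve, gives IC50 from residual activity versus log concentration (highest 4.8 μM). Reaction: 80 μM PI5P plus DOPE carrier, 100 μM GTP, 5 nM GST-tagged enzyme, pH 7.3 HEPES with MgCl2 and 5% DMSO, 2 h after 1 h enzyme-compound preincubation at 27° C.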

Assay [2] concerns the target T2, PIP4K2A (Homo sapiens, UniProt P48426).
T2 sequence (P48426 1-406): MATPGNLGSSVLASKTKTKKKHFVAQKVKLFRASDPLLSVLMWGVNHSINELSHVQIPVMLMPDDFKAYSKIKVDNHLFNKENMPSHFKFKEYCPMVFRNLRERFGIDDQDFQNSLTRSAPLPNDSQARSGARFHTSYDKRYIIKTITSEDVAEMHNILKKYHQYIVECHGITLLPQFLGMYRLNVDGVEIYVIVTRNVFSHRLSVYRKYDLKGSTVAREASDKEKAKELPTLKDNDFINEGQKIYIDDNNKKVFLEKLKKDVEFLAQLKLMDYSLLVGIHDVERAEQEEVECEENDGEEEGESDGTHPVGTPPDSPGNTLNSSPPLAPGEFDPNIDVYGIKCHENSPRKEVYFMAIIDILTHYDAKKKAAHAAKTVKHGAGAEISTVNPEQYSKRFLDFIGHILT
Nature of the assay: ADP-glo kinase assay PIP4K 2A (Table 3). The settings on record: compounds listed under IC50 bins. Details: made in house; host or cells: E. coli. The method in brief:
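ADP-Glo luminescence detected ADP after 1 h RT reaction started by ATP (60 μM solution) on full-length PIP4K2A (4 nM in mix) and PI(5)P diC8 (100 μM in mix), preceded by 15 min enzyme-compound preincubation in MOPS pH 7.2/25 mM MgCl2. Percent inhibition versus DMSO over 10 concentrations fitted for IC50.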
On the technique in general: ADP-Glo first removes unused ATP, then detects ADP through luciferase.

Assay [3] has as its target T2, PIP4K2A. The assay can be described thus: Kinase Assay PIP4K2 A (Table 2). The settings on record: compounds listed under IC50 bins. Details: 4 nM PIP4K2A (full length protein, SignalChem); purchased SignalChem. The method in brief:
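ADP-Glo luminescent read-out after 1 h room-temperature kinase reaction, started with 60 μM ATP solution following 15 min compound pre-incubation. Enzyme/substrate mix: 4 nM full-length PIP4K2A plus 100 μM PI(5)P diC8; buffer MOPS pH 7.2 with 25 mM MgCl2 and Tween 20. IC50 from 10-point, 3-fold titrations normalized to DMSO.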

A word on the IC50: it is the concentration at which inhibition is half-maximal.

For `CN(C)C(=O)c1cnc(-c2ccc(Nc3cccnc3)nc2)nc1` [Example 29, N,N-dimethyl-2-(6-(pyridin-3-ylamino)pyridin-3-yl)pyrimidine-5-carboxamide], the IC50 in assay [1], in assay [2] and in assay [3] was above 1000 nM throughout.
Regarding `CCOc1ccc(C(=O)Nc2cncc(Nc3ccc(-c4ccc(N5CCCC5=O)cc4)cn3)c2)cn1` [Example 249, 6-ethoxy-N-(5-((5-(4-(2-oxopyrrolidin-1-yl)phenyl)pyridin-2-yl)amino)pyridin-3-yl)nicotinamide], the IC50 in assay [1] is 10 to 100 nM; in assay [2], 1 to 10 nM.
In the case of `CC1CN(C(=O)Nc2cncc(Nc3ccc(-c4ccc(N5CCCC5=O)cc4)cn3)c2)CCO1` (centres unmarked) [Example 250, 2-methyl-N-(5-((5-(4-(2-oxopyrrolidin-1-yl)phenyl)pyridin-2-yl)amino)pyridin-3-yl)morpholine-4-carboxamide], the figures for the IC50 in assay [1] and in assay [2] were 10 to 100 nM and 100 to 1000 nM, respectively.
Take `O=C(Nc1cncc(Nc2ccc(-c3ccc(N4CCCC4=O)cc3)cn2)c1)N1CCOCC1` [Example 251, N-(5-((5-(4-(2-oxopyrrolidin-1-yl)phenyl)pyridin-2-yl)amino)pyridin-3-yl)morpholine-4-carboxamide]: the results for the IC50 in assay [1] and in assay [2] were 10 to 100 nM and 100 to 1000 nM, respectively.
As for `COc1cc(C(=O)Nc2cncc(Nc3ccc(-c4ccc(N5CCCC5=O)cc4)cn3)c2)c2[nH]cnc2c1` [Example 253, 5-methoxy-N-(5-((5-(4-(2-oxopyrrolidin-1-yl)phenyl)pyridin-2-yl)amino)pyridin-3-yl)-1H-benzo[d]imidazole-7-carboxamide], the IC50 in assay [1] and in assay [2] was 10 to 100 nM throughout.
Regarding `O=C(Nc1cncc(Nc2ccc(-c3ccc(N4CCCC4=O)cc3)cn2)c1)c1nn[nH]n1` [Example 254, N-(5-((5-(4-(2-oxopyrrolidin-1-yl)phenyl)pyridin-2-yl)amino)pyridin-3-yl)-2H-tetrazole-5-carboxamide], the IC50 in assay [1] and in assay [2] was 10 to 100 nM each time.
Turning to `CC1(C)C[C@H]2COc3ncc(Nc4ccc(-c5ccc(N6CCCC6=O)cc5)cn4)cc3N2C1=O` [Example 255, (S)-8,8-dimethyl-2-((5-(4-(2-oxopyrrolidin-1-yl)phenyl)pyridin-2-yl)amino)-6,6a,7,8-tetrahydro-9H-pyrido[2,3-b]pyrrolo[1,2-d][1,4]oxazin-9-one], the IC50 was in the range of 10 to 100 nM in assay [1] and 1 to 10 nM in assay [2].
Turning to `CC1CN(C(=O)Nc2cncc(Nc3ccc(-c4ccc(N5CCCC5=O)cc4)cn3)c2)CCN1` (centres unmarked) [Example 256, 3-methyl-N-(5-((5-(4-(2-oxopyrrolidin-1-yl)phenyl)pyridin-2-yl)amino)pyridin-3-yl)piperazine-1-carboxamide], the IC50 in assay [1] and in assay [2] was 10 to 100 nM each time.
As to `O=C(Nc1cncc(Nc2ccc(-c3ccc(N4CCCC4=O)cc3)cn2)c1)N1CCNC(C2CC2)C1` (centres unmarked) [Example 257, 3-cyclopropyl-N-(5-((5-(4-(2-oxopyrrolidin-1-yl)phenyl)pyridin-2-yl)amino)pyridin-3-yl)piperazine-1-carboxamide], the IC50 in assay [1] lay within 10 to 100 nM; in assay [2], 100 to 1000 nM.
Take `CC1C[C@H]2COc3ncc(Nc4ccc(-c5ccc(N6CCCC6=O)cc5)cn4)cc3N2C1=O` (stereo partly drawn) [Example 259, (6aS)-8-methyl-2-((5-(4-(2-oxopyrrolidin-1-yl)phenyl)pyridin-2-yl)amino)-6,6a,7,8-tetrahydro-9H-pyrido[2,3-b]pyrrolo[1,2-d][1,4]oxazin-9-one]: the IC50 in assay [1] and in assay [2] was 10 to 100 nM each time.
Take `O=C1CCCN1c1ccc(-c2ccc(Nc3cnc4c(c3)N3C(=O)C5(CC5)C[C@H]3CO4)nc2)cc1` [Example 260, (S)-2′-((5-(4-(2-oxopyrrolidin-1-yl)phenyl)pyridin-2-yl)amino)-6a′,7′-dihydro-6′H,9′H-spiro[cyclopropane-1,8′-pyrido[2,3-b]pyrrolo[1,2-d][1,4]oxazin]-9′-one]: the IC50 in assay [1] and in assay [2] was 1 to 10 nM each time.
Consider `CC1C[C@H]2COc3ncc(Nc4ccc(-c5ccc(N6CCCC6=O)c(F)c5)cn4)cc3N2C1=O` (stereo partly drawn) [Example 261, (6aS)-2-((5-(3-fluoro-4-(2-oxopyrrolidin-1-yl)phenyl)pyridin-2-yl)amino)-8-methyl-6,6a,7,8-tetrahydro-9H-pyrido[2,3-b]pyrrolo[1,2-d][1,4]oxazin-9-one], for which the IC50 was 10 to 100 nM in assay [1] and 1 to 10 nM in assay [2].
For `O=C(Nc1cncc(Nc2ccc(-c3ccc(N4CCCC4=O)cc3)cn2)c1)N1CCOC(C2CC2)C1` (centres unmarked) [Example 262, 2-cyclopropyl-N-(5-((5-(4-(2-oxopyrrolidin-1-yl)phenyl)pyridin-2-yl)amino)pyridin-3-yl)morpholine-4-carboxamide], the figures for the IC50 in assay [1] and in assay [2] were 10 to 100 nM and 100 to 1000 nM, respectively.
Regarding `O=C1CCCN1c1ccc(-c2ccc(Nc3cnc4c(c3)N3C(=O)OC[C@H]3CO4)nc2)cc1` [Example 265, (R)-8-((5-(4-(2-oxopyrrolidin-1-yl)phenyl)pyridin-2-yl)amino)-3a,4-dihydro-1H,3H-oxazolo[3,4-d]pyrido[2,3-b][1,4]oxazin-1-one], the values for the IC50 in assay [1] and in assay [2] were 10 to 100 nM and 1 to 10 nM, respectively.
In the case of `CC(C)(N)c1cc(Nc2cnc3c(c2)N2C(=O)CC[C@H]2CO3)ncc1-c1ccc(N2CCCC2=O)cc1F` [Example 266, (S)-2-((4-(2-aminopropan-2-yl)-5-(2-fluoro-4-(2-oxopyrrolidin-1-yl)phenyl)pyridin-2-yl)amino)-6,6a,7,8-tetrahydro-9H-pyrido[2,3-b]pyrrolo[1,2-d][1,4]oxazin-9-one], the IC50 in assay [1] was in the range of 10 to 100 nM; in assay [2] it was 1 to 10 nM.
As for `CN1CCC(c2ccc(-c3ccc(Nc4cnc5c(c4)N4C(=O)CC[C@@H]4CO5)nc3)cc2)C1=O` (stereo partly drawn) [Example 269, (6aR)-2-((5-(4-(1-methyl-2-oxopyrrolidin-3-yl)phenyl)pyridin-2-yl)amino)-6,6a,7,8-tetrahydro-9H-pyrido[2,3-b]pyrrolo[1,2d][1,4]oxazin-9-one], the IC50 in assay [1] and in assay [2] was above 1000 nM each time.
`C[C@@]1(O)C[C@H]2COc3ncc(Nc4ccc(-c5ccc(N6CCCC6=O)c(F)c5)cn4)cc3N2C1=O` [Example 270, (6aS,8R)-2-((5-(3-fluoro-4-(2-oxopyrrolidin-1-yl)phenyl)pyridin-2-yl)amino)-8-hydroxy-8-methyl-6,6a,7,8-tetrahydro-9H-pyrido[2,3-b]pyrrolo[1,2-d][1,4]oxazin-9-one]: the IC50 in assay [1] and in assay [2] was 10 to 100 nM throughout.
For `C[C@@]1(O)C[C@H]2COc3ncc(Nc4ccc(-c5ccc(N6CCCC6=O)cc5)cn4)cc3N2C1=O` [Example 271, (6aS,8R)-8-hydroxy-8-methyl-2-((5-(4-(2-oxopyrrolidin-1-yl)phenyl)pyridin-2-yl)amino)-6,6a,7,8-tetrahydro-9H-pyrido[2,3-b]pyrrolo[1,2-d][1,4]oxazin-9-one], the IC50 in assay [1] and in assay [2] was 10 to 100 nM in each case.
Consider `O=C1NCCN1c1cncc(Nc2ccc(-c3ccc(N4CCCC4=O)c(F)c3)cn2)c1` [Example 272, 1-(5-((5-(3-fluoro-4-(2-oxopyrrolidin-1-yl)phenyl)pyridin-2-yl)amino)pyridin-3-yl)imidazolidin-2-one], for which the values for the IC50 in assay [1] and in assay [2] were 10 to 100 nM and 100 to 1000 nM, respectively.
The corresponding values for `O=C1CCCN1c1ccc(-c2ccc(Nc3cnc4c(c3)N3C(=O)OC[C@H]3CO4)nc2)cc1F` [Example 295, (R)-8-((5-(3-fluoro-4-(2-oxopyrrolidin-1-yl)phenyl)pyridin-2-yl)amino)-3a,4-dihydro-1H,3H-oxazolo[3,4-d]pyrido[2,3-b][1,4]oxazin-1-one] are 10 to 100 nM and 1 to 10 nM.

The values above are taken from patent publication US11667651B2, “Aminopyridine derivatives as phosphatidylinositol phosphate kinase inhibitors” (HiberCell, Inc., priority 2017, dated 2023).
